Laboratory results taken from patent US20260207563A1, “UREA COMPOUNDS AS ACTIVATORS OF POTASSIUM CHANNELS KV7.2/7.3 USEFUL IN THE TREATMENT OF CNS AND PNS DISORDERS” (ANGELINI PHARMA S.P.A., priority 2022, published 2026).
pEC50: −log10 of the molar value.

Experiments:
Format in all cases: cell-based
[1] = target: T1, heteromeric KV7.2/KV7.3 channels (KCNQ2, KCNQ3) (Homo sapiens, UniProt O43525+O43526); test: Automated patch-clamp (Sophion Qube 384) potency assay against KV7.2/KV7.3 channels; conditions: CHO-K1/Kv7.2/Kv7.3 cells; for pEC50: EC50 from concentration-response of shift in Vhalf, 10 concentrations up to 30 μM, read-out: Kv7.2/7.3 EC50; for Kv7.2/7.3 ΔV1/2: maximal shift in the Vhalf from the top of the curve
T1 construct: expressed in transfected cells; host or cells: CHO-K1
Outline: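 Whole-cell automated patch clamp on CHO-K1 cells stably expressing human KV7.2/KV7.3, held at −80 mV; I-V steps −100 to +20 mV (1 s) with 0 mV tail pulses, Boltzmann-fitted activation curves. Ten concentrations (1:3 from 30 μM, quadruplicate) versus 0.3% DMSO control; EC50 and maximal shift from 4-parameter fits of Vhalf shift.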

[2] = target: T2, heteromeric KV7.3/KV7.5 channel (KCNQ3, KCNQ5) (Homo sapiens, UniProt O43525+Q9NR82); test: Automated patch-clamp counter-screening against KV7.3/KV7.5 channel; conditions: HEK293 cells expressing Kv7.3/KV7.5; class by maximal shift in the Vhalf at 30 μM
T2 construct: host or cells: HEK293
Outline: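 HEK293 cells with constitutive Kv7.3 and tetracycline-inducible Kv7.5 were recorded by automated patch clamp. Ten concentrations (1:3 series from 30 μM, quadruplicate) were tested; Vhalf shifts were fitted with a 4-parameter logistic to give EC50 and maximal Vhalf shift, with selectivity based on the shift at 30 μM.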

[3] = target: T3, homomeric KV7.4 channel (KCNQ4) (Homo sapiens, UniProt P56696); test: Automated patch-clamp (Qube) counter-screening assay against KV7.4 channel; conditions: CHO-K1 cells expressing KV7.4; class by maximal shift in the Vhalf at 30 μM
T3 construct: host or cells: CHO-K1
Outline: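 CHO-K1 cells stably expressing homomeric human KV7.4 were recorded on the Qube automated patch clamp. Ten concentrations (1:3 dilutions from 30 μM) were tested in quadruplicate. The mean Vhalf shift was fitted with a 4-parameter logistic to give EC50 and maximal Vhalf shift, and selectivity was based on the shift at 30 μM.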

SMILES | pEC50 [1] | Kv7.2/7.3 ΔV1/2 [1] [mV] | Kv7.3/7.5 selectivity criteria [2] | Kv7.4 selectivity criteria [3]
CC(F)(F)COc1cc(CNC(=O)NCCC2(C(F)(F)F)CC2)ccn1 [Compound 20, 1-((2-(2,2-Difluoropropoxy)pyridin-4-yl)methyl)-3-(2-(1-(trifluoromethyl)cyclopropyl)ethyl)urea] | 6.16 | 29.4 | A (Selective compounds showed Kv7.4 and/or Kv7.3/7.5 ΔV1/2 equal to or lower than 15 mV (letter A in table 3)) | A (Selective compounds showed Kv7.4 and/or Kv7.3/7.5 ΔV1/2 equal to or lower than 15 mV (letter A in table 3))
C[C@@H](Oc1cc(CNC(=O)NCCC2(C(F)(F)F)CC2)ncn1)C(F)(F)F [Compound 91] | 5.64 | 37.24 | B (Non-selective compounds showed Kv7.4 and/or Kv7.3/7.5 ΔV1/2 higher than 15 mV (letter B in table 3)) | A (Selective compounds showed Kv7.4 and/or Kv7.3/7.5 ΔV1/2 equal to or lower than 15 mV (letter A in table 3))
O=C(NCc1ccnc(OCC(F)(F)F)n1)NCC1CCCCC1 [Compound 107] | 5.51 | 20.76 | A (Selective compounds showed Kv7.4 and/or Kv7.3/7.5 ΔV1/2 equal to or lower than 15 mV (letter A in table 3)) | A (Selective compounds showed Kv7.4 and/or Kv7.3/7.5 ΔV1/2 equal to or lower than 15 mV (letter A in table 3))
O=C(NCCC1(C(F)(F)F)CC1)NCc1ccnc(N2CC(C(F)(F)F)C2)c1 [Compound 44, 1-((2-(3-(Trifluoromethyl)azetidin-1-yl)pyridin-4-yl)methyl)-3-(2-(1-(trifluoromethyl)cyclopropyl)ethyl)urea] | 5.20 | 17.02 | A (Selective compounds showed Kv7.4 and/or Kv7.3/7.5 ΔV1/2 equal to or lower than 15 mV (letter A in table 3)) | A (Selective compounds showed Kv7.4 and/or Kv7.3/7.5 ΔV1/2 equal to or lower than 15 mV (letter A in table 3))
O=C(NCCC1(C(F)(F)F)CC1)NCc1cccc(OCC(F)(F)F)n1 [Compound 31, 1-((6-(2,2,2-Trifluoroethoxy)pyridin-2-yl)methyl)-3-(2-(1-(trifluoromethyl)cyclopropyl)ethyl)urea] | 5.51 | 25.36 | B (Non-selective compounds showed Kv7.4 and/or Kv7.3/7.5 ΔV1/2 higher than 15 mV (letter B in table 3)) | A (Selective compounds showed Kv7.4 and/or Kv7.3/7.5 ΔV1/2 equal to or lower than 15 mV (letter A in table 3))

The next lines start with results.

pEC50 [1] | Kv7.2/7.3 ΔV1/2 [1] [mV] | SMILES | Kv7.3/7.5 selectivity criteria [2] | Kv7.4 selectivity criteria [3]
5.81 | 41.97 | O=C(NCc1ccnc(OCC(F)(F)F)c1)N[C@@H]1CCc2c(Cl)cccc21 [Compound 118] | B (Non-selective compounds showed Kv7.4 and/or Kv7.3/7.5 ΔV1/2 higher than 15 mV (letter B in table 3)) | B (Non-selective compounds showed Kv7.4 and/or Kv7.3/7.5 ΔV1/2 higher than 15 mV (letter B in table 3))
4.98 | 48.9 | O=C(NCc1ccnc(OCC(F)(F)F)c1)N[C@H]1CCCC[C@H]1O [Compound 58, 1-((1S,2R)-2-Hydroxycyclohexyl)-3-((2-(2,2,2-trifluoroethoxy)pyridin-4-yl)methyl) urea] | B (Non-selective compounds showed Kv7.4 and/or Kv7.3/7.5 ΔV1/2 higher than 15 mV (letter B in table 3)) | B (Non-selective compounds showed Kv7.4 and/or Kv7.3/7.5 ΔV1/2 higher than 15 mV (letter B in table 3))
6.29 | 25.35 | O=C(NCc1ccnc(OCC(F)(F)F)c1)NCc1ccccc1Cl [Compound 75, 1-(2-Chlorobenzyl)-3-((2-(2,2,2-trifluoroethoxy)pyridin-4-yl)methyl)urea] | A (Selective compounds showed Kv7.4 and/or Kv7.3/7.5 ΔV1/2 equal to or lower than 15 mV (letter A in table 3)) | B (Non-selective compounds showed Kv7.4 and/or Kv7.3/7.5 ΔV1/2 higher than 15 mV (letter B in table 3))
5.97 | 27.41 | O=C(NCc1ccnc(OCC(F)(F)F)c1)N[C@H]1CCc2ccc(C(F)(F)F)cc21 [Compound 163] | A (Selective compounds showed Kv7.4 and/or Kv7.3/7.5 ΔV1/2 equal to or lower than 15 mV (letter A in table 3)) | A (Selective compounds showed Kv7.4 and/or Kv7.3/7.5 ΔV1/2 equal to or lower than 15 mV (letter A in table 3))
5.79 | 23.71 | O=C(NCc1ccnc(OCC(F)(F)F)c1)NCC1Cc2ccccc2C1 [Compound 145] | A (Selective compounds showed Kv7.4 and/or Kv7.3/7.5 ΔV1/2 equal to or lower than 15 mV (letter A in table 3)) | A (Selective compounds showed Kv7.4 and/or Kv7.3/7.5 ΔV1/2 equal to or lower than 15 mV (letter A in table 3))
5.49 | 19.47 | O=C(NCc1ccnc(OCC(F)(F)F)c1)N[C@H]1CCOc2ccccc21 [Compound 132] | A (Selective compounds showed Kv7.4 and/or Kv7.3/7.5 ΔV1/2 equal to or lower than 15 mV (letter A in table 3)) | A (Selective compounds showed Kv7.4 and/or Kv7.3/7.5 ΔV1/2 equal to or lower than 15 mV (letter A in table 3))
6.12 | 22.47 | O=C(NCc1ccnc(OCC(F)(F)F)c1)Nc1cccc2c1OCC2 [Compound 131] | A (Selective compounds showed Kv7.4 and/or Kv7.3/7.5 ΔV1/2 equal to or lower than 15 mV (letter A in table 3)) | B (Non-selective compounds showed Kv7.4 and/or Kv7.3/7.5 ΔV1/2 higher than 15 mV (letter B in table 3))
6.71 | 17.98 | O=C(NCc1ccnc(OCC(F)(F)F)c1)N[C@H]1CCCc2ccccc21 [Compound 138] | A (Selective compounds showed Kv7.4 and/or Kv7.3/7.5 ΔV1/2 equal to or lower than 15 mV (letter A in table 3)) | A (Selective compounds showed Kv7.4 and/or Kv7.3/7.5 ΔV1/2 equal to or lower than 15 mV (letter A in table 3))
